The term Km denotes the substrate concentration at which the rate is half of its maximum.

The record followed here is ChEMBL document CHEMBL2074528, “Canalicular multispecific organic anion transporter/multidrug resistance protein 2 mediates low-affinity transport of reduced glutathione” (Biochem J, 1999).

One data set has as its target MRP2 (ABCC2) (Homo sapiens, UniProt Q92887). In words: in vitro. As to conditions: dog, membrane vesicles from MRP2-expressing MDCK cells, probe DNP-SG.
Substrate in data set [1]: N[C@@H](CCC(=O)N[C@H](CSc1ccc([N+](=O)[O-])cc1[N+](=O)[O-])C(=O)NCC(=O)O)C(=O)O
In words: TP_TRANSPORTER: uptake in membranes from MRP2-expressing MDCK cells. The format is functional, cell membranes, MDCK-II, Membrane.

For `N[C@@H](CCC(=O)N[C@@H](CS)C(=O)NCC(=O)O)C(=O)O` [GLUTATHIONE], the activity at 15 mM on MRP2 (ABCC2) worked out at 51%.

B1: ATP-binding cassette sub-family C member 2 (Homo sapiens) (protein)
chain: MLEKFCNSTFWNSSFLDSPEADLPLCFEQTVLVWIPLGYLWLLAPWQLLHVYKSRTKRSSTTKLYLAKQVFVGFLLILAAIELALVLTEDSGQATVPAVRYTNPSLYLGTWLLVLLIQYSRQWCVQKNSWFLSLFWILSILCGTFQFQTLIRTLLQGDNSNLAYSCLFFISYGFQILILIFSAFSENNESSNNPSSIASFLSSITYSWYDSIILKGYKRPLTLEDVWEVDEEMKTKTLVSKFETHMKRELQKARRALQRRQEKSSQQNSGARLPGLNKNQSQSQDALVLEDVEKKKKKSGTKKDVPKSWLMKALFKTFYMVLLKSFLLKLVNDIFTFVSPQLLKLLISFASDRDTYLWIGYLCAILLFTAALIQSFCLQCYFQLCFKLGVKVRTAIMASVYKKALTLSNLARKEYTVGETVNLMSVDAQKLMDVTNFMHMLWSSVLQIVLSIFFLWRELGPSVLAGVGVMVLVIPINAILSTKSKTIQVKNMKNKDKRLKIMNEILSGIKILKYFAWEPSFRDQVQNLRKKELKNLLAFSQLQCVVIFVFQLTPVLVSVVTFSVYVLVDSNNILDAQKAFTSITLFNILRFPLSMLPMMISSMLQASVSTERLEKYLGGDDLDTSAIRHDCNFDKAMQFSEASFTWEHDSEATVRDVNLDIMAGQLVAVIGPVGSGKSSLISAMLGEMENVHGHITIKGTTAYVPQQSWIQNGTIKDNILFGTEFNEKRYQQVLEACALLPDLEMLPGGDLAEIGEKGINLSGGQKQRISLARATYQNLDIYLLDDPLSAVDAHVGKHIFNKVLGPNGLLKGKTRLLVTHSMHFLPQVDEIVVLGNGTIVEKGSYSALLAKKGEFAKNLKTFLRHTGPEEEATVHDGSEEEDDDYGLISSVEEIPEDAASITMRRENSFRRTLSRSSRSNGRHLKSLRNSLKTRNVNSLKEDEELVKGQKLIKKEFIETGKVKFSIYLEYLQAIGLFSIFFIILAFVMNSVAFIGSNLWLSAWTSDSKIFNSTDYPASQRDMRVGVYGALGLAQGIFVFIAHFWSAFGFVHASNILHKQLLNNILRAPMRFFDTTPTGRIVNRFAGDISTVDDTLPQSLRSWITCFLGIISTLVMICMATPVFTIIVIPLGIIYVSVQMFYVSTSRQLRRLDSVTRSPIYSHFSETVSGLPVIRAFEHQQRFLKHNEVRIDTNQKCVFSWITSNRWLAIRLELVGNLTVFFSALMMVIYRDTLSGDTVGFVLSNALNITQTLNWLVRMTSEIETNIVAVERITEYTKVENEAPWVTDKRPPPDWPSKGKIQFNNYQVRYRPELDLVLRGITCDIGSMEKIGVVGRTGAGKSSLTNCLFRILEAAGGQIIIDGVDIASIGLHDLREKLTIIPQDPILFSGSLRMNLDPFNNYSDEEIWKALELAHLKSFVASLQLGLSHEVTEAGGNLSIGQRQLLCLGRALLRKSKILVLDEATAAVDLETDNLIQTTIQNEFAHCTVITIAHRLHTIMDSDKVMVLDNGKIIECGSPEELLQIPGPFYFMAKEAGIENVNSTKF
In the case of B1, the Km in data set [1] was found to be 70 µM.
